What is called IC50 is the concentration that inhibits the measured activity by half.

Each structure is given as a SMILES string. Activity calls are given as the source filed them.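 How the source made its calls: active means half-maximal inhibitory concentration of 10 µM or lower; inactive means the rest.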

Chain of Nuclear receptor subfamily 0 group B member 1 (Homo sapiens) (P51843 207-470 limits assumed): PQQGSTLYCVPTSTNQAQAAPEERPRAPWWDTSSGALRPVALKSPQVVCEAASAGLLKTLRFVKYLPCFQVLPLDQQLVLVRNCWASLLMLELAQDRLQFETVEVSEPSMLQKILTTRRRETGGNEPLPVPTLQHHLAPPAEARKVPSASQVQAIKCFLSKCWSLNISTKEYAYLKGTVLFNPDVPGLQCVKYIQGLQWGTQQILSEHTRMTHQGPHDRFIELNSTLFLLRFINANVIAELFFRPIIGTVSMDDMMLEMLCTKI

The experiment addresses Nuclear receptor subfamily 0 group B member 1 (Homo sapiens) (UniProt P51843). Kind of experiment: relief of Gal4-DAX1 transcriptional repression – cell-based, luminescence, HEK293, Gal4-DAX1 reporter, dose response, late-stage follow-up (AID 588822). Particulars: HEK293 Gal4-DAX1 luciferase reporter. (In general: A reporter such as luciferase makes a cellular process visible.)
Regarding `COc1ccc(OC)c(C(C)NC(=O)c2ccc(C)cc2)c1` (centres undefined), the IC50 was > 69.5 µM (inactive).
Take `O=C(Nc1ccc2c(c1)OCO2)c1ccc(C2SCC(=O)N2Cc2ccccc2)cc1` (centres undefined): the IC50 was > 69.5 µM (inactive).
Under `O=C(Nc1ccc2c(c1)OCO2)c1cccs1` stands > 69.5 µM (inactive); under `COc1cccc(C(=O)NC(C)c2cc(OC)ccc2OC)c1` (centres undefined), > 69.5 µM (inactive).
As to `COc1ccc(OC)c(C(C)NC(=O)c2ccc3c(c2)OCCO3)c1` (centres undefined), the IC50 is > 69.5 µM (inactive).
On to `O=C(Cc1cccs1)Nc1ccc2c(c1)OCO2`, for which the IC50 was > 69.5 µM (inactive).
With `Cc1occc1C(=O)Nc1ccc2c(c1)OCO2`, the IC50 was > 69.5 µM (inactive).
On to `O=C(Nc1ccc2c(c1)OCO2)c1ccc(C2SCC(=O)N2Cc2ccco2)cc1` (centres undefined), for which the IC50 was > 69.5 µM (inactive).
Under `COc1ccc(OC)c(C(C)NC(=O)c2ccc(C(C)(C)C)cc2)c1` (centres undefined) stands > 69.5 µM (inactive); under `O=C(Nc1ccc2c(c1)OCO2)c1ccc2ccccc2c1`, > 69.5 µM (inactive); under `COc1ccc(OC)c(C(C)NC(=O)c2cccc3ccccc23)c1` (centres undefined), > 69.5 µM (inactive).
`COc1ccc(OC)c(C(C)NC(=O)c2cccc(F)c2)c1` (centres undefined): the IC50 was > 69.5 µM (inactive).
Consider `Cn1c(=O)n(C)c2cc(C(=O)Nc3ccc4c(c3)OCCO4)ccc21`, for which the IC50 was > 69.5 µM (inactive).
With `O=C(Nc1ccc2c(c1)OCCO2)c1ccc2ccccc2c1`, the IC50 was > 69.5 µM (inactive).
Regarding `CN(C)c1cccc(C(=O)Nc2ccc3c(c2)OCCO3)c1`, the IC50 is > 69.5 µM (inactive).
For `COc1ccc(OC)c(C(C)NC(=O)c2ccc(F)cc2)c1` (centres undefined), the IC50 is > 69.5 µM (inactive).
For `COc1ccc(OC)c(C(C)NC(=O)c2cccc(C)c2)c1` (centres undefined), the IC50 was > 69.5 µM (inactive).
For the compound `COc1cccc(C(=O)Nc2ccc3c(c2)OCCO3)c1`, the IC50 was > 69.5 µM (inactive).
For the compound `COc1ccc(OC)c(C(C)NC(=O)c2ccccc2)c1` (centres undefined), the IC50 was > 69.5 µM (inactive).
The figure for `COc1ccc(OC)c(C(C)NC(=O)c2ccccc2C)c1` (centres undefined) is > 69.5 µM (inactive); for `COc1ccc(OC)c(C(C)NC(=O)c2ccccc2F)c1` (centres undefined) it is > 69.5 µM (inactive).
For `COc1ccc(OC)c(C(C)NC(=O)c2ccc(Cl)cc2)c1` (centres undefined), the IC50 is > 69.5 µM (inactive).
With `CSc1ccccc1C(=O)Nc1ccc2c(c1)OCO2`, the IC50 was > 69.5 µM (inactive).
The figure for `CSc1ccccc1C(=O)Nc1ccc2c(c1)OCCO2` is > 69.5 µM (inactive).
In the case of `Cc1cc(C(=O)Nc2ccc3c(c2)OCO3)cs1`, the IC50 was > 69.5 µM (inactive).
Regarding `COc1ccc(OC)c(C(C)NC(=O)c2c(F)cccc2Cl)c1` (centres undefined), the IC50 was > 69.5 µM (inactive).
With `COc1cccc(C(=O)Nc2ccc3c(c2)OCO3)c1`, the IC50 was > 69.5 µM (inactive).
Regarding `COc1ccc(OC)c(C(C)NC(=O)c2ccccc2Cl)c1` (centres undefined), the IC50 is > 69.5 µM (inactive).
As for `Cn1c(=O)n(C)c2cc(C(=O)Nc3ccc4c(c3)OCO4)ccc21`, the IC50 is > 69.5 µM (inactive).

Source of the values: PubChem BioAssay AID588822 (The Scripps Research Institute Molecular Screening Center, 2011).
